Literature values as cited in publication PMC3124134 (Bioorganic & medicinal chemistry, 2010).

What was measured:
Sc ODCase = conditions: S. cerevisiae ODCase; in words
ODCase = conditions: read-out: inhibition constant (Ki); competitive inhibition of ODCase

| SMILES | inhibition constants (Sc ODCase) | Ki (ODCase) |
| --- | --- | --- |
| NC(=O)c1[nH]nc([C@@H]2O[C@H](COP(=O)(O)O)[C@@H](O)[C@H]2O)c1O [compound 8, 4-Hydroxy-5-(5-O-monophosphoryl-β-D-ribofuranos-1-yl)-1H-pyrazole-3-carboxamide] | low nanomolar range |  |
| COC(=O)C1=C(C)NC(C)=C(C(=O)OC)C1c1ccccc1[N+](=O)[O-] [nifedipine] |  | 105 µM |
